Source: patent US4272437A, “Antibacterial agents, and 4-thio azetidinone intermediates” (priority 1979, dated 1981)
In brackets after ≈: the same amount, converted by molar mass. Read-outs that look alike come from different tables or passages of the source.

Columns and labels:
Ser. marcescens A-20019 = assay: MIC, tube dilution, Serratia marcescens A20019; format: cell-based; settings: Serratia marcescens, A20019, Serratia marcescens A20019; overnight 37° C.; read-out: Minimum Inhibitory Concentration (M.I.C.)
Excerpt: (§1) Representative compounds of the present invention were subjected to in vitro antibiotic screening against a variety of microorganisms.

E. coli A-15119 = assay: MIC, tube dilution, Escherichia coli A15119; format: cell-based; settings: Escherichia coli, A15119, E. coli A15119; overnight 37° C.; read-out: Minimum Inhibitory Concentration (M.I.C.)
Excerpt: as §1

Str. pyogenes A-9604 = assay: MIC, tube dilution, Streptococcus pyogenes A9604; format: cell-based; settings: Streptococcus pyogenes, A9604, Str. pyogenes A9604; overnight 37° C., Nutrient Broth; read-out: Minimum Inhibitory Concentration (M.I.C.)
Excerpt: as §1

Ent. cloacae A-9659 = assay: MIC, tube dilution, Enterobacter cloacae A9659; format: cell-based; settings: Enterobacter cloacae, A9659, Enterobacter cloacae A9659; overnight 37° C.; read-out: Minimum Inhibitory Concentration (M.I.C.)
Excerpt: as §1

[1] = test system: Staph. aureus (Meth-Res) A-15097; assay: MIC, tube dilution, Staphylococcus aureus A15097 (Meth-Res); format: cell-based; settings: Staphylococcus aureus, overnight 37° C.
Excerpt: as §1

[2] = test system: Staph. aureus (Pen-Res) A-9606; assay: MIC, tube dilution, Staphylococcus aureus A9606 (Pen-Res); format: cell-based; settings: Staphylococcus aureus, overnight 37° C.
Excerpt: as §1

Str. faecalis A-20688 = assay: MIC, tube dilution, Streptococcus faecalis A20688; format: cell-based; settings: Enterococcus faecalis, A20688, Str. faecalis A20688; overnight 37° C.; read-out: Minimum Inhibitory Concentration (M.I.C.)
Excerpt: as §1

Proteus rettgeri A21203 = assay: MIC, tube dilution, Proteus rettgeri A21203; format: cell-based; settings: Providencia rettgeri, overnight 37° C., read-out: Minimum Inhibitory Concentration (M.I.C.)
Excerpt: as §1

[3] = test system: Klebsiella species A20468; assay: MIC, tube dilution, Klebsiella species A20468; format: cell-based; settings: Klebsiella species (K. pneumoniae) A20468; overnight 37° C.; read-out: Minimum Inhibitory Concentration (M.I.C.)
Excerpt: as §1

Str. pneumoniae A-9585 = assay: MIC, tube dilution, Streptococcus pneumoniae A9585; format: cell-based; settings: Streptococcus pneumoniae, A9585, Str. pneumoniae A9585; overnight 37° C., Nutrient Broth; read-out: Minimum Inhibitory Concentration (M.I.C.)
Excerpt: as §1

K. pneumoniae A-15130 = assay: MIC, tube dilution, Klebsiella pneumoniae A15130; format: cell-based; settings: Klebsiella pneumoniae, A15130, K. pneumoniae A15130; overnight 37° C.; read-out: Minimum Inhibitory Concentration (M.I.C.)
Excerpt: as §1

Staph. aureus A-9537 = assay: MIC, tube dilution, Staphylococcus aureus A9537; format: cell-based; settings: Staphylococcus aureus, A9537, Staph. aureus A9537; overnight 37° C., Nutrient Broth; read-out: Minimum Inhibitory Concentration (M.I.C.)
Excerpt: as §1

[4] = test system: Staph. aureus A-9537 and 50% serum; assay: MIC, tube dilution, Staph. aureus A9537 + 50% serum; format: cell-based, Staphylococcus aureus; settings: Staphylococcus aureus, overnight 37° C., read-out: Minimum Inhibitory Concentration (M.I.C.)
Excerpt: as §1

Pr. mirabilis A-9900 = assay: MIC, tube dilution, Proteus mirabilis A9900; format: cell-based; settings: Proteus mirabilis, A9900, Proteus mirabilis A9900; overnight 37° C.; read-out: Minimum Inhibitory Concentration (M.I.C.)
Excerpt: as §1

Ps. aeruginosa A-21213 = assay: MIC, tube dilution, Pseudomonas aeruginosa A21213; format: cell-based; settings: Pseudomonas aeruginosa A21213; overnight 37° C.; read-out: Minimum Inhibitory Concentration (M.I.C.)
Excerpt: as §1

E. coli A-20341-1 = assay: MIC, tube dilution, Escherichia coli A20341-1; format: cell-based; settings: Escherichia coli, A203411; E. coli A20341-1; overnight 37° C.; read-out: Minimum Inhibitory Concentration (M.I.C.)
Excerpt: as §1

Pr. vulgaris A-9716 = assay: MIC, tube dilution, Proteus vulgaris / Proteus mirabilis A9716; format: cell-based, Proteus vulgaris (name changed to Proteus mirabilis); settings: Proteus vulgaris, overnight 37° C.
Excerpt: as §1

Pr. morganii A-15153 = assay: MIC, tube dilution, Proteus morganii A15153; format: cell-based; settings: Morganella morganii, A15153, Proteus morganii A15153; overnight 37° C.; read-out: Minimum Inhibitory Concentration (M.I.C.)
Excerpt: as §1

Ent. cloacae A-9656 = assay: MIC, tube dilution, Enterobacter cloacae A9656; format: cell-based; settings: overnight 37° C., read-out: Minimum Inhibitory Concentration (M.I.C.)
Excerpt: as §1

Ps. aeruginosa A-9843A = assay: MIC, tube dilution, Pseudomonas aeruginosa A9843A; format: cell-based; settings: Pseudomonas aeruginosa, A9843A, read-out: Minimum Inhibitory Concentration (M.I.C.), Pseudomonas aeruginosa A9843A; overnight 37° C.
Excerpt: as §1

[5] = read-out: Minimum Inhibitory Concentration (M.I.C.), Staph. aureus A15097 (Meth-Res)
[6] = read-out: Minimum Inhibitory Concentration (M.I.C.), Staph. aureus A9606 (Pen-Res)
[7] = A9716, read-out: Minimum Inhibitory Concentration (M.I.C.), Proteus vulgaris / Proteus mirabilis A9716
[8] = A21203, Proteus rettgeri A21203
[9] = A9716, Proteus vulgaris / Proteus mirabilis A9716, read-out: Minimum Inhibitory Concentration (M.I.C.)
[10] = Enterobacter cloacae, A9656, Enterobacter cloacae A9656

SMILES	MIC (Ser. marcescens A-20019)	MIC (E. coli A-15119)	MIC (Str. pyogenes A-9604)	MIC (Ent. cloacae A-9659)	MIC [1, 5]	MIC [2, 6]	MIC (Str. faecalis A-20688)	MIC (Proteus rettgeri A21203; Proteus rettgeri A21203)	MIC [3]	MIC (Str. pneumoniae A-9585)	MIC (K. pneumoniae A-15130)	MIC (Staph. aureus A-9537)	MIC [4]	MIC (Pr. mirabilis A-9900)	MIC (Ps. aeruginosa A-21213)	MIC (E. coli A-20341-1)	MIC (Pr. vulgaris A-9716; [7])	MIC (Pr. morganii A-15153)	MIC (Ent. cloacae A-9656; Enterobacter cloacae A9656)	MIC (Ps. aeruginosa A-9843A)	other results
CCCCC1=C(C(=O)[O-])N2C(=O)C[C@H]2S1.[Na+] [Preparation 24, Sodium 2-butylpenem-3-carboxylate]	32 µg/mL	16 µg/mL	1 µg/mL	63 µg/mL	125 µg/mL	4 µg/mL	63 µg/mL	8 µg/mL	> 125 µg/mL	0.25 µg/mL	63 µg/mL	0.13 µg/mL	> 63 µg/mL	2 µg/mL	125 µg/mL	> 125 µg/mL	2 µg/mL	16 µg/mL	63 µg/mL	125 µg/mL	
CCOP(=O)(CCC1=C(C(=O)O)N2C(=O)CC2S1)OCC (centres unmarked) [Preparation 25, 2'-(2'-Diethylphosphono-1'-ethyl)penem-3-carboxylic Acid]	63 µg/mL (≈ 188 µM)	8 µg/mL (≈ 23.9 µM)	> 125 µg/mL	16 µg/mL (≈ 47.7 µM)	4 µg/mL (≈ 11.9 µM)	32 µg/mL (≈ 95.4 µM)	125 µg/mL (≈ 373 µM)	32 µg/mL (≈ 95.4 µM)	4 µg/mL (≈ 11.9 µM)	125 µg/mL (≈ 373 µM)	125 µg/mL (≈ 373 µM)	1 µg/mL (≈ 2.98 µM)	8 µg/mL	8 µg/mL (≈ 23.9 µM)	> 125 µg/mL	2 µg/mL (≈ 5.96 µM)	63 µg/mL (≈ 188 µM)	63 µg/mL (≈ 188 µM)	16 µg/mL (≈ 47.7 µM)	125 µg/mL (≈ 373 µM)	
CSC(SC)C1=C(C(=O)O)N2C(=O)CC2S1 (centres unmarked) [Preparation 26, Sodium 2-(Dimethyldithiomethyl)penem-3-carboxylate]	63 µg/mL	32 µg/mL	4 µg/mL	63 µg/mL	> 125 µg/mL	125 µg/mL	> 125 µg/mL		> 125 µg/mL	2 µg/mL	> 125 µg/mL	4 µg/mL	> 63 µg/mL	32 µg/mL	125 µg/mL	> 125 µg/mL		63 µg/mL		125 µg/mL	MIC (Proteus rettgeri A21203; [8]): 32 µg/mL; MIC (Pr. vulgaris A-9716; [9]): 32 µg/mL; MIC (Ent. cloacae A-9656; [10]): 63 µg/mL
O=C(O)C1=C(c2cscn2)SC2CC(=O)N12 (centres unmarked) [Preparation 27, 2-(4'-Thiazolyl)penem-3-carboxylic Acid]	63 µg/mL (≈ 248 µM)	8 µg/mL (≈ 31.5 µM)	0.25 µg/mL (≈ 0.983 µM)	125 µg/mL (≈ 492 µM)			4 µg/mL (≈ 15.7 µM)		> 125 µg/mL	0.13 µg/mL (≈ 0.511 µM)	125 µg/mL (≈ 492 µM)	0.5 µg/mL (≈ 1.97 µM)	> 63 µg/mL	4 µg/mL (≈ 15.7 µM)	125 µg/mL (≈ 492 µM)	125 µg/mL (≈ 492 µM)		32 µg/mL (≈ 126 µM)		125 µg/mL (≈ 492 µM)	MIC ([1]; Staph. aureus A15097 (Meth-Res), read-out: Minimum Inhibitory Concentration (M.I.C.)): 8 µg/mL (≈ 31.5 µM); MIC ([2]; Staph. aureus A9606 (Pen-Res), read-out: Minimum Inhibitory Concentration (M.I.C.)): 8 µg/mL (≈ 31.5 µM); MIC (Proteus rettgeri A21203; [8]): 16 µg/mL (≈ 62.9 µM); MIC (Pr. vulgaris A-9716; [9]): 4 µg/mL (≈ 15.7 µM); MIC (Ent. cloacae A-9656; [10]): 63 µg/mL (≈ 248 µM)
